Reference: US5801149A, “Inhibition of signal transduction molecules” (Joslin D-abetes Center, Inc., priority 1995, dated 1998)
Non-standard residues stand in square brackets, D forms with d. Residues, ends and D or L forms follow the SMILES beside them. No end group written: not given here. Pmp = N[C@@H](Cc1ccc(CP(=O)(O)O)cc1)C(=O)O; pY = N[C@@H](Cc1ccc(OP(=O)(O)O)cc1)C(=O)O

Experiments:
[1] = target: T1, association between pp60^c-grc /mT and PI 3-kinase (Mus musculus, UniProt P26450); assay: Inhibition of in vitro association of cytosolic PI 3-kinase activity (Balb/3T3 lysate) with immunopurified pp60^c-grc /mT; format: biochemical; conditions: absence of sodium vanadate (active PTPases); peptide at about ID50
T1 construct: endogenous in cells; host or cells: Balb/3T3 cells (PI 3-kinase); pp60c-src/mT from baculovirus-infected Sf9 cells
T1 sequence (P26450 whole entry): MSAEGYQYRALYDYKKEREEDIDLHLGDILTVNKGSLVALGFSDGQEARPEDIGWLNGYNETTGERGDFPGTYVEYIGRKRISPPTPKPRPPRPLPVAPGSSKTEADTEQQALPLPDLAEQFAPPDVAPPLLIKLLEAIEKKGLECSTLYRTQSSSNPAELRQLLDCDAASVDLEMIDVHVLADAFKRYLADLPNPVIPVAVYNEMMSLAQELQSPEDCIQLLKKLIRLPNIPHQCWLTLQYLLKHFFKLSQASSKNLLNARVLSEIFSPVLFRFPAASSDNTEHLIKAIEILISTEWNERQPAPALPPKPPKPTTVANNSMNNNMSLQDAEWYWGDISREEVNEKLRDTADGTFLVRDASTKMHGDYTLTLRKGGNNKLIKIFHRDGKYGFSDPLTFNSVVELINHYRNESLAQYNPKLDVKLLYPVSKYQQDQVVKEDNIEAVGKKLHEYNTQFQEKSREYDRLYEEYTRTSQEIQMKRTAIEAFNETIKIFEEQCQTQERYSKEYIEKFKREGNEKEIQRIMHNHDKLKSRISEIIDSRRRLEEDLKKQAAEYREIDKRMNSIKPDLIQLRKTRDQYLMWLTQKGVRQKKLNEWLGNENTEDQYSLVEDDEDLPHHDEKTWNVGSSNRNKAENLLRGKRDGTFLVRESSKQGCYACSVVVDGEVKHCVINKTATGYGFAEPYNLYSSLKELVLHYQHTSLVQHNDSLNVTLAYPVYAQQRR
Source text: Inhibition of the in vitro Association of PI 3-Kinase Activity With Immunopurified pp60^c-grc /mT. Baculovirus-expressed pp60^c-grc /mT complex was immunopurified from infection Sf9 insect cell (Piwnica-Worms et al., 1990, J. Virol. 64:61-68) lysates as described (Auger et al., 1990, 1992, J. BioL Chem. 267:5408-5415). PI 3-kinase activity was obtained directly from crude Balb/3T3 cell lysates as follows. After washing confluent 10 cm dishes with phosphate-buffered saline, Balb/3T3 cells were treated with lysis buffer (137 mM NaCI, 20 mM Hepes, 1 mM MgCl2, 1 mM CaCl2, 10% glycerol, 1% Nonidet P-40, and 1 μg/ml each of leupeptin, pepstatin A and aprotinin, pH 7.25) in the presence or absence of 0.15 mM sodium vanadate. Following a 10 min incubation with lysis buffer, cells were scrape-harvested and particulate debris was removed from the lysates by centrifugation at 12,000×g for 5 min. at 4° C. Varying concentrations of peptides were added directly to the lysates and incubated at 4° C. for 30 min.
Lysate-peptide mixtures were combined with protein A-Sepharose beads containing immunoprecipitated pp60^c-grc /mT complexes. After washing, the beads were used to catalyze phosphatidylinositol phosphorylation as described (Whitman et al., 1985, Nature 315:239-242; Auger et al., 1989, Cell 57:167-175, 1990, Methods in Inositide Res. pp. 159-166). […]

[2] = target: T2, p85 SH2 domains (SH2/GST fusion protein) (Homo sapiens, UniProt P27986); assay: Biospecific interaction analysis of binding to p85 SH2 domains; conditions: steady-state extrapolation, Scatchard-like analysis
T2 construct: GST
T2 sequence (P27986 333-428 limits assumed): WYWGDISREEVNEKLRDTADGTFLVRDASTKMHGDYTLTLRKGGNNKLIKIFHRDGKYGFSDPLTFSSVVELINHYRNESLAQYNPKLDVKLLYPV
Experimental: Therefore, mT-pY315 binding to p85 SH2 domains was analyzed using biospecific interaction analysis as previously described to obtain a more accurate estimate for KD. Series of data were obtained during real-time binding experiments with different concentrations of SH2/GST fusion protein (data not shown).

[3] = system: SH2 domains of P13-kinase P85; assay: SH2 domain binding of GXVPML analog peptides (FIG. 2); conditions: peptide GXVPML, X varied
Source text: (§1) In these experiments, one or both hydrogen atoms were replaced on Pmp at the carbon position between the phenyl ring and the phosphonate.

[4] = Amino acid side chain pK titration; format: physicochemical; conditions: 0.2M solution titrated with 6N HCl
[5] = target: T3, Rat PTPase 1B (Rattus norvegicus, UniProt P20417); assay: PTPase 1B peptide dephosphorylation (Km) and inhibition (Ki); format: biochemical
T3 construct: cloning the full-length cDNA into the bacterial expression vector, PKK233-2; made in house; host or cells: bacteria (vector PKK233-2)
T3 sequence (P20417 1-432): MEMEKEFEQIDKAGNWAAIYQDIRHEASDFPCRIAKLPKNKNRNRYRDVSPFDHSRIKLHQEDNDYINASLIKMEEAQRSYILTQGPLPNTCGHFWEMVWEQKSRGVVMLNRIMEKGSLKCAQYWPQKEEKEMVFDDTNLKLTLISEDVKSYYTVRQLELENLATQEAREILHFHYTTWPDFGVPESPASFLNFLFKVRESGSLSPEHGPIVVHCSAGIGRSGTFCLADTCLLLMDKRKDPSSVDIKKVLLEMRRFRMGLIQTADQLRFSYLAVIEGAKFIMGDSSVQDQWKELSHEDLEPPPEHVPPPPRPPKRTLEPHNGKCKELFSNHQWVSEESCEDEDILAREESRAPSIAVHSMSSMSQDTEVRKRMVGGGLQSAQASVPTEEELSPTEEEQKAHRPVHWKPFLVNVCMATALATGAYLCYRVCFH
Experimental: The phosphopeptides were used as substrates of PTPase 1B, a single catalytic domain PTPase with a […] tissue distribution (Hunter et al., 1989, cell 58:1013). Rat PTPase 1B (Guan et al., 1990, Proc. Natl., Acad. Sci. USA 87:1501) was obtained by PCR and cloning the full-length cDNA into the bacterial expression vector, PKK233-2.
Sequence specificity for peptide dephosphorylation was observed, with apparent Km values ranging from <2 μM for the phospho-middle t sequence to >2 mM for pTyr itself (Table 3).
Several phosphono peptides were tested for the ability to inhibit PTPase 1B activity and KI values determined by methods known to those skilled in the art.

[6] = target: SH2 domain of Src (Homo sapiens, UniProt P12931)
SH2 domain of Src, sequence (P12931 151-248 limits assumed): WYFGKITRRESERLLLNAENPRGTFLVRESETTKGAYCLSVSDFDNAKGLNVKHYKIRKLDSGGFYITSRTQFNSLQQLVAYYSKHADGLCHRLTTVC
Source text: as §1

## CSCC[C@H](NC(=O)[C@@H]1CCCN1C(=O)[C@H](CCSC)NC(=O)[C@H](Cc1ccc(OP(=O)(O)O)cc1)NC(=O)[C@H](CCC(=O)O)NC(=O)[C@H](CCC(=O)O)NC(=O)[C@@H](N)CCC(=O)O)C(=O)N[C@@H](CCC(=O)O)C(=O)N[C@@H](CC(=O)O)C(=O)N[C@@H](CC(C)C)C(=O)N[C@@H](Cc1ccc(O)cc1)C(=O)O [mT-pY315, EEEpYMPMEDLY] (H-EEE[pY]MPMEDLY-OH)
[1]
  inhibition of association between pp60^c-grc /mT and PI 3-kinase: obliterated in the absence of vanadate
[2]
  estimated KD: 10 nM

## GXVPML (Pmp): peptide GXVPML (SEQ ID NO: 45) with X = Pmp (G[Pmp]VPML)
[3]
  ED50: 1.0 ± 0.1 µM

## N[C@@H](Cc1ccc(OP(=O)(O)O)cc1)C(=O)O [phosphotyrosine, reference compound]
[4]
  side chain pK3: 5.7
[5]; apparent Km as substrate
  Km: > 2 mM
[5]; apparent Km, phosphotyrosine and pY-peptides as substrates
  Km: > 2 mM

## CC[C@H](C)[C@H](NC(=O)[C@H](CCC(=O)O)NC(=O)[C@H](CCC(=O)O)NC(=O)[C@H](Cc1ccc(OP(=O)(O)O)cc1)NC(=O)[C@H](CCC(N)=O)NC(C)=O)C(=O)N1CCC[C@H]1C(N)=O [QXEEIP (pTyr)] (Ac-Q[pY]EEIP-NH2)
[6]
  IC50: 5.7 ± 0.7 µM
